Data: patent US20240109912A1, “TRICYCLIC PYRIMIDINES AS CYCLIN-DEPENDENT KINASE 7 (CDK7) INHIBITORS” (JANSSEN PHARMACEUTICA NV, priority 2020, published 2024)
Where “and” joins values, the source holds several entries; their conditions need not be identical. Equal entries are not always repeated. Where two headings read alike, the source gives them in different places.

Legend:
[1] = tested on: RNA polymerase II Serine 5 phosphorylation in A549 cells overexpressing CDK7 mutant (C312S); assay: Imaging-based cellular RNA PolII Ser5 phosphorylation assay in A549 cells overexpressing CDK7-mutant (C312S); assay type: cell-based, human; details: for IC50: Homo sapiens, A549, A549 cells overexpressing CDK7 mutant (C312S), read-out: CDK7_ A549 mutant hCDK7(pIC50) (converted); for CDK7_ A549 mutant hCDK7(pIC50): A549 cells overexpressing CDK7 mutant (C312S)
Procedure, shortened: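 A stably transduced A549 pool overexpressing CDK7 C312S, a mutant that blocks covalent binding at Cys312, while retaining endogenous wild-type CDK7 was used. Ser5 phosphorylation was measured by imaging, and IC50 values were derived.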

[2] = tested on: RNA polymerase II Serine 5 phosphorylation (CDK7) in A549 cells
[3] = molecular target: CDK7/cyclinH/MAT1 trimeric complex (Homo sapiens (Human), UniProt P50613); assay: In vitro CDK7 assay, potency of irreversible covalent inhibitors (kinact/KI); details: for kinact: read-out: CDK7 (20 nM enz.) (kinact, s^−1), 20 nM enz.
Chain of CDK7/cyclinH/MAT1 trimeric complex (P50613 whole entry): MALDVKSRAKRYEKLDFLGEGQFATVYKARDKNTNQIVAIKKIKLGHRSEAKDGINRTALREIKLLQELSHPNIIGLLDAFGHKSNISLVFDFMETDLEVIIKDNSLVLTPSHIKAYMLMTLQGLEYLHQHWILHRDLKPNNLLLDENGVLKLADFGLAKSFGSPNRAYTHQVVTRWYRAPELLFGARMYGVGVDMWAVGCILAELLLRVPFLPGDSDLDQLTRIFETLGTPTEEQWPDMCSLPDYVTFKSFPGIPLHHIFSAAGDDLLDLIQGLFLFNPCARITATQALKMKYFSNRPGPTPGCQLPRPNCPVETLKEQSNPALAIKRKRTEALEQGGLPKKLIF
Chain of CDK7/cyclinH/MAT1 trimeric complex (P51946 whole entry partner): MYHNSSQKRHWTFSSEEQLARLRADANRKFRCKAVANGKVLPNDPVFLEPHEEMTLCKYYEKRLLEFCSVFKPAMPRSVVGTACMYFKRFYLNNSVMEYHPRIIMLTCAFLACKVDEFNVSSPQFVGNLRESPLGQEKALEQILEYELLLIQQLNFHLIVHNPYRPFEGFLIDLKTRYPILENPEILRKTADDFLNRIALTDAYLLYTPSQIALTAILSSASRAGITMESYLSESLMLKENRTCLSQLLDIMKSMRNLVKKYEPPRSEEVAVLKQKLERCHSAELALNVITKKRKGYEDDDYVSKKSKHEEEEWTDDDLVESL
Chain of CDK7/cyclinH/MAT1 trimeric complex (P51948 whole entry partner): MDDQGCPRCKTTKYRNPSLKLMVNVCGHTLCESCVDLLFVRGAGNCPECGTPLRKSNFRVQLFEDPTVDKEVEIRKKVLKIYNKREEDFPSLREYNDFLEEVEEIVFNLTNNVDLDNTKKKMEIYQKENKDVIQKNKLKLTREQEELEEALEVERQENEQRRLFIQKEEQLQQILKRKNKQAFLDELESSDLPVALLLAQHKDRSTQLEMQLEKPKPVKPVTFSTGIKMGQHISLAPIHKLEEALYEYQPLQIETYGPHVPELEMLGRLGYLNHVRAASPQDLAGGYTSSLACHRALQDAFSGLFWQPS

[4] = CDK7 (20 nM enz.) (KI, μM), 20 nM enz.
[5] = read-out: CDK7 (20 nM enz.) (kinact/ KI, M^−1*s^−1), 20 nM enz.
[6] = read-out: CDK7 (20 nM enz.) (kobs/[I], M^−1*s^−1), 20 nM enz.

SMILES | IC50 [1] [nM] | IC50 [2] | melting point [°C] | CDK7_ A549 mutant hCDK7(pIC50) [1] | CDK7 (20 nM enz.) (kinact, s^−1) ([3]; 20 nM enz.) | Ki [3, 4] | kinact [3] [s⁻¹] | Ki ([3]; CDK7 (KI(μM)), Table B) | kinact/KI [3, 5] [M⁻¹ s⁻¹] | CDK7 (20 nM enz.) (kobs/[I], M^−1*s^−1) ([3]; 20 nM enz.) [M⁻¹ s⁻¹] | kinact/KI [3, 6] [M⁻¹ s⁻¹]
CC#CC(=O)N1CCC(C)(N2CC(c3cc(C)c4c(c3)Nc3ncnc(N5CCS(=O)(=O)CC5)c3[C@@H](C)O4)C2)C1 (mixture of isomers) [compound 147] | > 10000 | 309 nM | 244 |  |  |  |  |  |  |  | 
CC#CC(=O)N1CCC(N2CC(c3cc(C)c4c(c3)Nc3ncnc(N5CCS(=O)(=O)CC5)c3C(C)O4)C2)CC1 (racemic) [compound 123] | 8320 | 50.1 nM | 218 |  |  |  |  |  |  |  | 
C=CC(=O)N1CC(N2CCC(c3cc4c(cn3)O[C@@H](C)c3c(ncnc3N3CCOCC3)N4)CC2)C1 (single isomer, unassigned) [compound 62] | > 3980 |  | 253 | <5.4 | 4.79e-05 s⁻¹ | 0.504 µM and 2.05 µM | 5.74e-05 |  |  |  | 
C=CC(=O)N1CCC(N2CC(c3cc(C)c4c(c3)Nc3ncnc(N5CCS(=O)(=O)CC5)c3[C@H](C)O4)C2)CC1 (single isomer, unassigned) [compound 100] | ~6610 |  | 226 | 5.25 and 5.24 and 5.16 |  |  |  |  |  |  | 
C=CC(=O)N1CCC(N2CC(c3cc(C)c4c(c3)Nc3ncnc(N5CCS(=O)(=O)CC5)c3[C@@H](C)O4)C2)CC1 (single isomer, unassigned) [compound 102] | > 10000 | 186 nM and 174 nM and 151 nM and 148 nM | 227 |  |  |  |  |  |  |  | 
CC#CC(=O)N1CCC(N2CC(c3cc(C)c4c(c3)Nc3ncnc(N5CCS(=O)(=O)CC5)c3[C@@H](C)O4)C2)CC1 (single isomer, unassigned) [compound 124] | > 10000 | 251 nM and 138 nM | 292 |  |  |  |  |  |  |  | 
CC#CC(=O)N1CCC(N2CC(c3cc(C)c4c(c3)Nc3ncnc(N5CCS(=O)(=O)CC5)c3[C@H](C)O4)C2)CC1 (single isomer, unassigned) [compound 125] | 6760 | ~17.8 nM and ~26.9 nM | 203 | 5.26 |  |  |  |  |  |  | 
C=CC(=O)N1CC(N2CCC(c3ccc4c(c3)Nc3ncnc(N5CCOCC5)c3CO4)CC2)C1 [compound 1] | > 10000 |  | 184 |  |  | 0.389 µM | 9.1e-05 | 0.598 µM and 0.167 µM and 0.608 µM and 0.285 µM | 234 |  | 
C=CC(=O)N1CCN(C2CN(c3ccc4c(c3)Nc3ncnc(N5CCOCC5)c3CO4)C2)CC1 [compound 4] | > 10000 | > 10000 nM | 151 |  |  |  |  |  |  |  | 
C=CC(=O)N1CC(N2CC=C(c3ccc4c(c3)Nc3ncnc(N5CCOCC5)c3CO4)CC2)C1 [compound 33] | > 10000 | 2340 nM | 193 |  |  |  |  |  |  |  | 
C=CC(=O)N1CC(N2CCC(c3cc(C)c4c(c3)Nc3ncnc(-c5cn(C)nc5C)c3CO4)CC2)C1 [compound 81] | > 10000 | 363 nM |  |  |  | 0.31 µM | 4.82e-05 |  | 156 |  | 
C=CC(=O)N1CC(N2CCC(c3cc(C)c4c(c3)Nc3ncnc(-c5cncc(OCC)c5)c3CO4)CC2)C1 [compound 82] | > 10000 | 1260 nM |  |  |  | 1.28 µM | 4.27e-05 |  | 33.4 |  | 
C=CC(=O)N1CC[C@H](N2CC(c3cc(C)c4c(c3)Nc3ncnc(N5CCS(=O)(=O)CC5)c3CO4)C2)C1 [compound 90] | ~10000 | 251 nM | 232 |  |  |  |  |  |  |  | 
C=CC(=O)N1CC[C@@H](N2CC(c3cc(C)c4c(c3)Nc3ncnc(N5CCS(=O)(=O)CC5)c3CO4)C2)C1 [compound 92] | > 10000 | 427 nM | 241 |  |  |  |  |  |  |  | 
C=CC(=O)N1CC(N2CCC(c3cc(C)c4c(c3)Nc3ncnc(N5CCS(=O)(=O)CC5)c3CO4)CC2)C1 [compound 101] | > 10000 |  | 169 |  | 8.74e-05 s⁻¹ | 0.077 µM and 0.0323 µM | 5.87e-05 |  |  | 1455 | 1460
C=CC(=O)N1CC(N2CC(c3cc(C)c4c(c3)Nc3ncnc(N5CCOCC5)c3C(C)O4)C2)C1 (stereo not drawn) [compound 103] | > 10000 | ~1020 nM |  |  |  | 0.32 µM | 5.08e-05 |  | 159 |  | 
C=CC(=O)N1CCC(N2CCC(c3cc(C)c4c(c3)Nc3ncnc(N5CCS(=N)(=O)CC5)c3CO4)CC2)C1 (stereo not drawn) [compound 104] | > 10000 | 50.1 nM |  |  |  |  |  |  |  |  | 1140
C=CC(=O)N1CCC(N2CC(c3cc(C)c4c(c3)Nc3ncnc(N5CCS(=N)(=O)CC5)c3CO4)C2)CC1 [compound 105] | > 10000 | 282 nM |  |  |  | 0.121 µM | 3.13e-05 |  | 259 |  | 

SMILES | IC50 [1] [nM] | IC50 [2] | melting point [°C] | CDK7_ A549 mutant hCDK7(pIC50) [1] | CDK7 (20 nM enz.) (kinact, s^−1) ([3]; 20 nM enz.) | Ki [3, 4] | kinact [3] [s⁻¹] | Ki ([3]; CDK7 (KI(μM)), Table B) | kinact/KI [3, 5] [M⁻¹ s⁻¹] | CDK7 (20 nM enz.) (kobs/[I], M^−1*s^−1) ([3]; 20 nM enz.) [M⁻¹ s⁻¹] | kinact/KI [3, 6] [M⁻¹ s⁻¹]
C=CC(=O)N1CC(N2CCC(c3cc(C#N)c4c(c3)Nc3ncnc(N5CCOCC5)c3CO4)CC2)C1 [compound 106] | > 10000 | 245 nM |  |  |  | 0.0858 µM | 6.75e-05 |  | 786 |  | 
C=CC(=O)N1CC(N2CC(c3cc(C)c4c(c3)Nc3ncnc(N5CCS(=N)(=O)CC5)c3CO4)C2)C1 [compound 110] | > 10000 | 813 nM |  |  |  | 0.0322 µM | 4.3e-05 |  | 1330 |  | 
C=CC(=O)N1CC(N2CC(c3cc(C)c4c(c3)Nc3ncnc(N5CCS(=O)(=O)CC5)c3CO4)C2)C1 [compound 111] | > 10000 | 288 nM |  |  |  | 0.112 µM | 0.000116 |  | 1030 |  | 
C=CC(=O)N1CC(N2CCC(c3cc(C)c4c(c3)Nc3ncnc(N5CCC(CCO)C5)c3CO4)CC2)C1 (stereo not drawn) [compound 113] | > 10000 | 9120 nM |  |  |  |  | 3.36e-06 |  |  |  | 
C=CC(=O)N1CCC(N2CC(c3cc(C#N)c4c(c3)Nc3ncnc(N5CCOCC5)c3CO4)C2)CC1 [compound 120] | > 10000 | 525 nM |  |  |  | 0.295 µM | 3.8e-05 |  | 129 |  | 
CC#CC(=O)N1CCC(N2CC=C(c3cc(C)c4c(c3)Nc3ncnc(N5CCS(=O)(=O)CC5)c3CO4)CC2)CC1 [compound 138] | > 10000 | 46.8 nM |  |  |  | 0.0908 µM | 7.15e-05 |  | 788 |  | 
CC#CC(=O)N1CC(C)(N2CCC(c3cc(C)c4c(c3)Nc3ncnc(N5CCS(=O)(=O)CC5)c3[C@@H](C)O4)CC2)C1 [compound 144] | > 10000 | ~46.8 nM |  |  |  | 0.00389 µM | 4.73e-05 |  | 12200 |  | 
CC#CC(=O)N1CC(N2CCC(c3cc(C)c4c(c3)Nc3ncnc(N5CCS(=O)(=O)CC5)c3[C@@H](C)O4)CC2)C1 [compound 148] | > 10000 | 42.7 nM and 60.3 nM and 75.9 nM and 63.1 nM and ~61.7 nM |  |  | 6.08e-05 s⁻¹ and 5.32e-05 s⁻¹ and 4.3e-05 s⁻¹ | 0.0218 µM and 0.0473 µM and 0.0348 µM and 0.00601 µM | 4.04e-05 |  |  | 1230.83 | 952
CC#CC(=O)N1CCC(N2CCN(c3cc(C)c4c(c3)Nc3ncnc(N5CCS(=O)(=O)CC5)c3[C@@H](C)O4)CC2)CC1 [compound 154] | > 10000 | ~53.7 nM |  |  |  | 0.00416 µM | 5.87e-05 |  | 14100 |  | 
CC#CC(=O)N1CC(N2CCN(c3cc(C)c4c(c3)Nc3ncnc(N5CCS(=O)(=O)CC5)c3[C@@H](C)O4)CC2)C1 [compound 155] | > 10000 | 214 nM |  |  |  | 0.00172 µM | 2.06e-05 |  | 12200 |  | 
[2H]C1(N2CCC(c3cc(C)c4c(c3)Nc3ncnc(N5CCS(=O)(=O)CC5)c3[C@@H](C)O4)CC2)CN(C(=O)C#CC)C1 [compound 160] | > 10000 | 115 nM |  |  |  | 0.0135 µM | 9.88e-05 |  | 7340 |  | 
C#Cc1cc(C2CCN(C3CN(C(=O)C=C)C3)CC2)cc2c1O[C@@H](C)c1c(ncnc1N1CCS(=O)(=O)CC1)N2 [compound 190] | > 10000 | ~50.1 nM and ~40.7 nM |  |  |  |  |  |  |  |  | 839
C#Cc1cc(C2CCN(C3CN(C(=O)C#CC)C3)CC2)cc2c1O[C@@H](C)c1c(ncnc1N1CCS(=O)(=O)CC1)N2 [compound 191] | > 10000 | 191 nM |  |  |  | 0.1 µM | 8.29e-05 |  | 809 |  | 
C#Cc1cc(C2CCN(C3CN(C(=O)C#CC)C3)CC2)cc2c1O[C@H](C)c1c(ncnc1N1CCS(=O)(=O)CC1)N2 [compound 192] | > 10000 | 457 nM |  |  |  | 0.856 µM | 8.38e-05 |  | 103 |  | 
C#Cc1cc(C2CN([C@H]3CCN(C(=O)C=C)C3)C2)cc2c1O[C@H](C)c1c(ncnc1N1CCS(=O)(=O)CC1)N2 [compound 193] | > 10000 | 513 nM |  |  |  | 0.156 µM | 2.62e-05 |  | 168 |  | 
C#Cc1cc(C2CN([C@H]3CCN(C(=O)C=C)C3)C2)cc2c1O[C@@H](C)c1c(ncnc1N1CCS(=O)(=O)CC1)N2 [compound 194] | > 10000 | 158 nM |  |  |  | 0.0177 µM | 2.42e-05 |  | 1370 |  | 
CC#CC(=O)N1CC(N2CCC(c3cc(C)c4c(c3)Nc3ncnc(N5CCOC6(COC6)C5)c3CO4)CC2)C1 [compound 195] | > 10000 | 102 nM |  |  |  | 0.108 µM | 5.21e-05 |  | 485 |  | 
